In test [1] the target is T1, SARS-CoV-2 PLpro (nsp3 1564–1878) (Severe acute respiratory syndrome coronavirus 2, UniProt P0DTD1). The test can be described thus: biochemical. Also on record: FRET-quenched peptide (Pro3) cleavage by PLpro, 10 min pre-incubation, slope over 20 min, normalised to no-compound control. Conditions: read-out: % of control remaining.
Test [2] addresses T1, SARS-CoV-2 PLpro (nsp3 1564–1878). The test can be described thus: biochemical. Also on record: FRET-quenched peptide (Pro3) cleavage by PLpro, 10 min pre-incubation, slope over 20 min, normalised to no-compound control. Conditions: read-out: % of control remaining. The source holds these as a separate data set.

Structures can show the parent of a compound that is named as a salt. Where two headings read alike, the source gives them in different places. Where a SMILES comes first, the peptide text is derived from it.

On to `C[C@]12CC[C@H](O)C[C@H]1CC[C@@H]1[C@@H]2CC[C@]2(C)[C@@H](C3=CC(=O)OC3)[C@@H](O)C[C@]12O` [Gitoxigenin], for which, in test [1], the remaining activity at 1.25 µM came out at 105%. The remaining activity at 3.75 µM in test [2] is 104%.
Turning to `CC(C)(C)[C@@H]1NC(=O)O[C@@H]2CCC[C@H]2OC/C=C/C(F)(F)c2nc3ccccc3nc2O[C@@H]2C[C@@H](C(=O)N[C@]3(C(=O)NS(=O)(=O)C4(C)CC4)C[C@H]3C(F)F)N(C2)C1=O` [Glecaprevir], the remaining activity at 1.25 µM in test [1] (Well no.=8512, low concentration screen) stood at 103%. In addition, the remaining activity at 3.75 µM in test [2] (Well no.=8512, high concentration screen) worked out at 93.8%.
For `COc1ccc(Cl)cc1C(=O)NCCc1ccc(S(=O)(=O)NC(=O)NC2CCCCC2)cc1` [Glibenclamide], in test [1] (Well no.=475, low concentration screen), the remaining activity at 1.25 µM was 101%. Moreover, the remaining activity at 3.75 µM in test [2] (Well no.=475, high concentration screen) was determined as 102%.
`CCC1=C(C)CN(C(=O)NCCc2ccc(S(=O)(=O)NC(=O)N[C@H]3CC[C@H](C)CC3)cc2)C1=O` [Glimepiride]: the remaining activity at 1.25 µM in test [1] (Well no.=2178, low concentration screen) amounted to 96.4%. Besides, the remaining activity at 3.75 µM in test [2] (Well no.=2178, high concentration screen) amounted to 97%.
`CN1C(=O)[C@]23CC4=CC=C[C@H](O)[C@H]4N2C(=O)[C@@]1(CO)SS3` [Gliotoxin]: the remaining activity at 1.25 µM in test [1] (Well no.=3323, low concentration screen) was determined as 94.1%. The remaining activity at 3.75 µM in test [2] (Well no.=3323, high concentration screen) worked out at 95.5%.
On to `Cc1cnc(C(=O)NCCc2ccc(S(=O)(=O)NC(=O)NC3CCCCC3)cc2)cn1` [Glipizide], for which the remaining activity at 1.25 µM in test [1] (Well no.=700, low concentration screen) turned out to be 91.5%; in test [1] (Well no.=1605, low concentration screen) it was 96.2%. Also, the remaining activity at 3.75 µM came out at 94.3% in test [2] (Well no.=700, high concentration screen) and 93% in test [2] (Well no.=1605, high concentration screen).
`COc1ccc2c(c1)C(=O)N(CCc1ccc(S(=O)(=O)NC(=O)NC3CCCCC3)cc1)C(=O)C2(C)C` [Gliquidone]: the remaining activity at 1.25 µM in test [1] (Well no.=5369, low concentration screen) was 97.2%. Also, in test [2] (Well no.=5369, high concentration screen), the remaining activity at 3.75 µM came to 95.2%.
Consider `N[C@@H](CCC(=O)N[C@@H](CS)C(=O)NCC(=O)O)C(=O)O` [Glutathione], for which the remaining activity at 1.25 µM in test [1] (Well no.=4049, low concentration screen) is 99.4%. In addition, the remaining activity at 3.75 µM in test [2] (Well no.=4049, high concentration screen) came out at 100%.
Regarding `COc1ccc(Cl)cc1C(=O)NCCc1ccc(S(=O)(=O)NC(=O)NC2CCCCC2)cc1` [Glyburide], the remaining activity at 1.25 µM in test [1] (Well no.=1806, low concentration screen) worked out at 96.5%. Moreover, the remaining activity at 3.75 µM in test [2] (Well no.=1806, high concentration screen) stood at 97.3%.
Take `NCC(=O)O` [Glycine]: the remaining activity at 1.25 µM in test [1] (Well no.=7699, low concentration screen) came out at 106%. Moreover, the remaining activity at 3.75 µM in test [2] (Well no.=7699, high concentration screen) amounted to 108%.
Regarding `COc1cc2c(=O)c(-c3ccc(O)cc3)coc2cc1O` [Glycitein], the remaining activity at 1.25 µM in test [1] (Well no.=6248, low concentration screen) turned out to be 98.2%. Also, in test [2] (Well no.=6248, high concentration screen), the remaining activity at 3.75 µM was found to be 101%.
As for `C[C@H](CCC(=O)NCC(=O)O)[C@H]1CC[C@H]2[C@@H]3[C@H](O)C[C@@H]4C[C@H](O)CC[C@]4(C)[C@H]3CC[C@]12C` [Glycochenodeoxycholic acid], the remaining activity at 1.25 µM was found to be 105% in test [1] (Well no.=7020, low concentration screen) and 103% in test [1] (Well no.=7257, low concentration screen). Further, the remaining activity at 3.75 µM in test [2] (Well no.=7020, high concentration screen) stood at 102%.
Turning to `C[C@H](CCC(=O)NCC(=O)O)[C@H]1CC[C@H]2[C@@H]3[C@H](O)C[C@@H]4C[C@H](O)CC[C@]4(C)[C@H]3C[C@H](O)[C@]12C` [Glycocholic acid], the remaining activity at 1.25 µM in test [1] (Well no.=7068, low concentration screen) turned out to be 106%; in test [1] (Well no.=7165, low concentration screen), 104%. In addition, the remaining activity at 3.75 µM in test [2] (Well no.=7068, high concentration screen) is 105%; in test [2] (Well no.=7165, high concentration screen), 101%.
Regarding `O=C(O)CO` [Glycolic acid], the remaining activity at 1.25 µM in test [1] (Well no.=6981, low concentration screen) was found to be 97.8%. Moreover, the remaining activity at 3.75 µM in test [2] (Well no.=6981, high concentration screen) came to 98.4%.
With `C[N+]1(C)CCC(OC(=O)C(O)(c2ccccc2)C2CCCC2)C1` (stereo not shown) [Glycopyrrolate], the remaining activity at 1.25 µM in test [1] (Well no.=7471, low concentration screen) came to 102%. The remaining activity at 3.75 µM in test [2] (Well no.=7471, high concentration screen) was 103%.
For the compound `C[C@H](CCC(=O)NCC(=O)O)[C@H]1CC[C@H]2[C@@H]3[C@@H](O)C[C@@H]4C[C@H](O)CC[C@]4(C)[C@H]3CC[C@]12C` [Glycoursodeoxycholic acid], the remaining activity at 1.25 µM in test [1] (Well no.=7311, low concentration screen) is 108%. Moreover, in test [2] (Well no.=7311, high concentration screen), the remaining activity at 3.75 µM amounted to 106%.
`NCC(=O)NCC(=O)O` [Glycylglycine] (H-Gly-Gly-OH): in test [1] (Well no.=6641, low concentration screen), the remaining activity at 1.25 µM worked out at 100%. The remaining activity at 3.75 µM in test [2] (Well no.=6641, high concentration screen) stood at 102%.
Regarding `CC1(C)[C@@H](O[C@H]2O[C@H](C(=O)O)[C@@H](O)[C@H](O)[C@H]2O[C@@H]2O[C@H](C(=O)O)[C@@H](O)[C@H](O)[C@H]2O)CC[C@]2(C)[C@H]3C(=O)C=C4[C@@H]5C[C@@](C)(C(=O)O)CC[C@]5(C)CC[C@@]4(C)[C@]3(C)CC[C@@H]12` [Glycyrrhizic acid], the remaining activity at 1.25 µM in test [1] (Well no.=5196, low concentration screen) stood at 106%. In addition, the remaining activity at 3.75 µM in test [2] (Well no.=5196, high concentration screen) is 93.8%.
Turning to `COc1cc2c(c(OC)c1OC)-c1c(cc3c(c1OC)OCO3)C[C@H](C)[C@](C)(O)C2` [Gomisin A], in test [1] (Well no.=5817, low concentration screen), the remaining activity at 1.25 µM was 103%. Also, in test [2] (Well no.=5817, high concentration screen), the remaining activity at 3.75 µM amounted to 104%.
Consider `CC(C)C[C@H](NC(=O)CNC(=O)[C@H](Cc1ccc(O)cc1)NC(=O)[C@H](CO)NC(=O)[C@H](Cc1c[nH]c2ccccc12)NC(=O)[C@H](Cc1cnc[nH]1)NC(=O)[C@@H]1CCC(=O)N1)C(=O)N[C@@H](CCCNC(=N)N)C(=O)N1CCC[C@H]1C(=O)NCC(N)=O` [Gonadorelin (acetate)], for which the remaining activity at 1.25 µM in test [1] (Well no.=6276, low concentration screen) came to 104%. The remaining activity at 3.75 µM in test [2] (Well no.=6276, high concentration screen) was determined as 106%.
With `CC(C)C[C@H](NC(=O)[C@@H](COC(C)(C)C)NC(=O)[C@H](Cc1ccc(O)cc1)NC(=O)[C@H](CO)NC(=O)[C@H](Cc1c[nH]c2ccccc12)NC(=O)[C@H](Cc1cnc[nH]1)NC(=O)[C@@H]1CCC(=O)N1)C(=O)N[C@@H](CCCNC(=N)N)C(=O)N1CCC[C@H]1C(=O)NNC(N)=O` [Goserelin (acetate)], the remaining activity at 1.25 µM in test [1] (Well no.=7338, low concentration screen) was found to be 97.1%. The remaining activity at 3.75 µM in test [2] (Well no.=7338, high concentration screen) is 95%.
On to `CC(C)C[C@H](NC(=O)[C@@H](COC(C)(C)C)NC(=O)[C@H](Cc1ccc(O)cc1)NC(=O)[C@H](CO)NC(=O)[C@H](Cc1c[nH]c2ccccc12)NC(=O)[C@H](Cc1cnc[nH]1)NC(=O)[C@@H]1CCC(=O)N1)C(=O)N[C@@H](CCCNC(=N)N)C(=O)N1CCC[C@H]1C(=O)NNC(N)=O` [Goserelin], for which the remaining activity at 1.25 µM in test [1] (Well no.=1624, low concentration screen) amounted to 98.9%. Further, in test [2] (Well no.=1624, high concentration screen), the remaining activity at 3.75 µM stood at 101%.
As for `Cc1cc2c(C(C)C)c(O)c(O)c(C=O)c2c(O)c1-c1c(C)cc2c(C(C)C)c(O)c(O)c(C=O)c2c1O` [Gossypol], the remaining activity at 1.25 µM in test [1] (Well no.=3325, low concentration screen) was 98.8%; in test [1] (Well no.=3953, low concentration screen) it was 102%. The remaining activity at 3.75 µM stood at 99.3% in test [2] (Well no.=3325, high concentration screen) and 98.4% in test [2] (Well no.=3953, high concentration screen).
On to `CN(C)Cc1c[nH]c2ccccc12` [Gramine], for which the remaining activity at 1.25 µM in test [1] (Well no.=3284, low concentration screen) turned out to be 97.9%. For the same compound, in test [2] (Well no.=3284, high concentration screen), the remaining activity at 3.75 µM came out at 99.5%.
In the case of `CN1[C@@H]2CCC[C@H]1C[C@@H](NC(=O)c1nn(C)c3ccccc13)C2` [Granisetron (Hydrochloride)], in test [1] (Well no.=6223, low concentration screen), the remaining activity at 1.25 µM amounted to 104%. Moreover, the remaining activity at 3.75 µM in test [2] (Well no.=6223, high concentration screen) is 102%.
For `CN1[C@@H]2CCC[C@H]1C[C@@H](NC(=O)c1nn(C)c3ccccc13)C2` [Granisetron HCl], the remaining activity at 1.25 µM in test [1] (Well no.=5189, low concentration screen) was 99.3%. For the same compound, the remaining activity at 3.75 µM in test [2] (Well no.=5189, high concentration screen) came out at 97.5%.
With `CN1[C@@H]2CCC[C@H]1C[C@@H](NC(=O)c1nn(C)c3ccccc13)C2` [Granisetron], the remaining activity at 1.25 µM in test [1] (Well no.=1910, low concentration screen) came out at 93.3%. For the same compound, the remaining activity at 3.75 µM in test [2] (Well no.=1910, high concentration screen) was found to be 91.6%.
